# Several values for one entry are separate records, joined by “and”; a condition that tells them apart may be missing. Identical values can stand only once.
# Legend:
# CLK1 = conditions: human protein kinase; ref 17 (SM08502), 19 (T3), 20-21 (CX-4945), 24 (DB18); cited from earlier work
# CLK2 = conditions: human protein kinase; ref 17 (SM08502), 19 (T3), 20-21 (CX-4945), 24 (DB18); cited from earlier work
# CLK3 = conditions: human protein kinase; ref 17 (SM08502), 19 (T3), 20-21 (CX-4945), 24 (DB18); cited from earlier work
# CLK4 = conditions: human protein kinase; ref 17 (SM08502), 20-21 (CX-4945), 24 (DB18); cited from earlier work
# DYRK1A = conditions: human protein kinase; ref 17 (SM08502), 19 (T3), 20-21 (CX-4945), 24 (DB18); cited from earlier work
# Hs_CDK5/p25 = Hs_CDK5/p25 (Homo sapiens, UniProt Q00535); assay: primary screening, short panel of mammalian kinases; assay type: biochemical; conditions: ATP 10 µM, means, n = 2, read-out: Residual kinase activity Hs_CDK5/p25; for remaining activity at 1 µM: compound 1 μM; for remaining activity at 10 µM: compound 10 μM
# From the text: (§1) Our molecules have been submitted first to a primary screening against a panel of eight disease-related kinases: five members of the CMGC (for CDK, MAPK, GSK3, and CLK) group (CDK5/p25, CDK9/CyclinT, GSK3β, CLK1 and DYRK1A), one CAMK (calmodulin/calcium regulated kinase PIM1), one CK1 (the casein kinase CK1ε), and haspin as a […] kinase.
# (§2) Figure 4 Primary evaluation of the inhibition of the new quinazolines against a short panel of mammalian kinases. Residual kinase activities are expressed in % of maximal activity, i.e., measured in the absence of inhibitor but with an equivalent dose of DMSO (solvent of the tested compounds). ATP concentration used in the kinase assays was 10 µM (values are means, n = 2). Kinases are from human origin (Homo sapiens) except CLK1 (from Mus musculus) and DYRK1A (from Rattus norvegicus). […]
# Hs_CDK9/CyclinT = Hs_CDK9/CyclinT (Homo sapiens, UniProt P50750); assay: as above; assay type: biochemical; conditions: ATP 10 µM, means, n = 2, read-out: Residual kinase activity Hs_CDK9/CyclinT; for remaining activity at 1 µM: compound 1 μM; for remaining activity at 10 µM: compound 10 μM
# From the text: as §1, §2
# Hs_CK1ε = Hs_CK1ε (Homo sapiens, UniProt P49674); assay: as above; assay type: biochemical; conditions: ATP 10 µM, means, n = 2, read-out: Residual kinase activity Hs_CK1ε; for remaining activity at 1 µM: compound 1 μM; for remaining activity at 10 µM: compound 10 μM
# From the text: as §1, §2
# Hs_GSK3β = Hs_GSK3β (Homo sapiens, UniProt P49841); assay: as above; assay type: biochemical; conditions: ATP 10 µM, means, n = 2, read-out: Residual kinase activity Hs_GSK3β; for remaining activity at 1 µM: compound 1 μM; for remaining activity at 10 µM: compound 10 μM
# From the text: as §1, §2
# Hs_HASPIN = biological target: T1, Hs_HASPIN (Homo sapiens, UniProt Q8TF76); assay: as above; assay type: biochemical; conditions: ATP 10 µM, means, n = 2, read-out: Residual kinase activity Hs_HASPIN; for remaining activity at 1 µM: compound 1 μM; for remaining activity at 10 µM: compound 10 μM
# T1 sequence (Q8TF76 1-798): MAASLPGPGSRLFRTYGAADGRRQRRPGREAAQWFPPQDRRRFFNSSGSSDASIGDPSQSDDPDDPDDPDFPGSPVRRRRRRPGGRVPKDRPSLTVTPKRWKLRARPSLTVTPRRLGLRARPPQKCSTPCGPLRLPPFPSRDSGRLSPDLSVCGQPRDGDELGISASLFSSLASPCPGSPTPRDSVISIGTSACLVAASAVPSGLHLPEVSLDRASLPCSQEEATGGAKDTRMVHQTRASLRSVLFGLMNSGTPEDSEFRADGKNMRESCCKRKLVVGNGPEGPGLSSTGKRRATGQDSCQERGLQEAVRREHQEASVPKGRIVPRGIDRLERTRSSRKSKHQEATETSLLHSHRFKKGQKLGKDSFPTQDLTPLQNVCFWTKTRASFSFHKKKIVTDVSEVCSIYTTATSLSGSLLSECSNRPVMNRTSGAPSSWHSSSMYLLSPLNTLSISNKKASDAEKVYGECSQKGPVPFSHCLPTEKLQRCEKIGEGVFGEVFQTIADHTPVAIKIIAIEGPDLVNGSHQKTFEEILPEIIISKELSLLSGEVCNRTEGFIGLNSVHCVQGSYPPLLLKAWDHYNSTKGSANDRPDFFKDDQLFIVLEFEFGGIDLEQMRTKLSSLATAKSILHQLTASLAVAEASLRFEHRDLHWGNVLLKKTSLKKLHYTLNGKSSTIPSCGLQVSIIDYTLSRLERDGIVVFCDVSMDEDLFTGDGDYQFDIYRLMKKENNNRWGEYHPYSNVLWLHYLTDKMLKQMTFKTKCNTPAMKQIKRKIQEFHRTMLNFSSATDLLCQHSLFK
# From the text: as §1, §2
# Hs_PIM1 = Hs_PIM1 (Homo sapiens, UniProt P11309); assay: as above; assay type: biochemical; conditions: ATP 10 µM, means, n = 2, read-out: Residual kinase activity Hs_PIM1; for remaining activity at 1 µM: compound 1 μM; for remaining activity at 10 µM: compound 10 μM
# From the text: as §1, §2
# Mm_CLK1 [1] = biological target: T2, Mm_CLK1 (Mus musculus, UniProt P22518); assay: as above; assay type: biochemical; conditions: for remaining activity at 1 µM: compound 1 μM; for remaining activity at 1 µM / remaining activity at 10 µM: ATP 10 µM, means, n = 2, read-out: Residual kinase activity Mm_CLK1; for remaining activity at 10 µM: compound 10 μM; for activity against CLK1 in primary screening: 1 and 10 µM
# From the text: as §1, §2
# Rn_DYRK1A = Rn_DYRK1A (Rattus norvegicus, UniProt Q63470); assay: as above; assay type: biochemical; conditions: ATP 10 µM, means, n = 2, read-out: Residual kinase activity Rn_DYRK1A; for remaining activity at 1 µM: compound 1 μM; for remaining activity at 10 µM: compound 10 μM
# From the text: as §1, §2
# Mm_CLK1 [2] = biological target: T2, Mm_CLK1; assay: radiometric γ33P-ATP kinase assay (Eurofins); assay type: biochemical; conditions: for IC50: 15 µM ATP, dose-response, points in duplicate; for Mm_CLK3/Mm_CLK1: ratio of IC50 values
# Description: (§3) The results are reported in Table 2 and in Supporting Information File 1.
# (§4) 2- Kinase inhibition studies
# (§5) Kinase enzymatic activities were assayed using both luminescent ADP detection assay
# (§6) (ADP-GloTM assay kit, Promega, Madison, WI) or radiometric kinase assay. These
# (§7) assays were performed using the protocols described in our previous publication. […]
# (§8) 1.Brahmaiah, D.; Kanaka Durga Bhavani, A.; Aparna, P.; Sampath Kumar, N.; Solhi,
# (§9) H.; Le Guevel, R.; Baratte, B.; Ruchaud, S.; Bach, S.; Singh Jadav, S.; Raji Reddy, C.;
# (§10) Roisnel, T.; Mosset, P.; Levoin, N.; Grée, R. Bioorg.
# (§11) R.; Baratte, B.; Robert, T.; Ruchaud, S.; Bach, S.; Jadav, S. S.; Reddy, C. […]
# Mm_CLK2 = Mm_CLK2 (Mus musculus, UniProt O35491); assay: radiometric γ33P-ATP kinase assay (Eurofins); assay type: biochemical; conditions: for IC50: 15 µM ATP, dose-response, points in duplicate; for Mm_CLK3/Mm_CLK2: ratio of IC50 values
# Description: as §3, §4, §5, §6, §7, §8, §9, §10, §11
# Mm_CLK4 = Mm_CLK4 (Mus musculus, UniProt O35493); assay: radiometric γ33P-ATP kinase assay (Eurofins); assay type: biochemical; conditions: for IC50: 15 µM ATP, dose-response, points in duplicate; for Mm_CLK3/Mm_CLK4: ratio of IC50 values
# Description: as §3, §4, §5, §6, §7, §8, §9, §10, §11
# Mm_CLK3 = Mm_CLK3 (Mus musculus, UniProt O35492); assay: radiometric γ33P-ATP kinase assay (Eurofins); assay type: biochemical; conditions: 15 µM ATP; dose-response, points in duplicate
# Description: as §3, §4, §5, §6, §7, §8, §9, §10
# R.; Baratte, B.; Robert, T.; Ruchaud, S.; Bach, S.; Jadav, S. S.; Reddy, C. R.; Mosset,
# P.; Gouault, N.; Levoin, N.; Grée, R. Molecules 2022, 27, 6149. […]
# Hs_PIM1, sequence (P11309 whole entry): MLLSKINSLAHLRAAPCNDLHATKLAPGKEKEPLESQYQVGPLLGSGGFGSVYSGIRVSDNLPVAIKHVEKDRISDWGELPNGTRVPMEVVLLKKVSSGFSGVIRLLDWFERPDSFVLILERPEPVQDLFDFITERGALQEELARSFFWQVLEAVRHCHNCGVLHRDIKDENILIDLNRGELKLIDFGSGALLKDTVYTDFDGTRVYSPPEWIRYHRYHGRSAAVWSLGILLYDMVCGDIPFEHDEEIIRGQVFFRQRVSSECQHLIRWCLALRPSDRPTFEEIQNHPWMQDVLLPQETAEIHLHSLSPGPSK
# Hs_CK1ε, sequence (P49674 whole entry): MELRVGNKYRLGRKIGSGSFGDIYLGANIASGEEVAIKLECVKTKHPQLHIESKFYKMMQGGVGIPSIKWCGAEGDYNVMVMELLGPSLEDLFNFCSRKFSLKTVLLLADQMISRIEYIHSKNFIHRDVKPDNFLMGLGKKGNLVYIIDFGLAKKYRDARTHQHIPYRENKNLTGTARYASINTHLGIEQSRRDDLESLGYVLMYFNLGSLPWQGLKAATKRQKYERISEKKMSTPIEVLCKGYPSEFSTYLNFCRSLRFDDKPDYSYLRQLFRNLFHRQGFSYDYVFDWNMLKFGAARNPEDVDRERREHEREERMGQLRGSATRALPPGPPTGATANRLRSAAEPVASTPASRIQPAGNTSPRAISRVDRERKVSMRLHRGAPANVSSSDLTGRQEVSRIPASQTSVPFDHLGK
# Hs_CDK5/p25, sequence (Q00535 whole entry): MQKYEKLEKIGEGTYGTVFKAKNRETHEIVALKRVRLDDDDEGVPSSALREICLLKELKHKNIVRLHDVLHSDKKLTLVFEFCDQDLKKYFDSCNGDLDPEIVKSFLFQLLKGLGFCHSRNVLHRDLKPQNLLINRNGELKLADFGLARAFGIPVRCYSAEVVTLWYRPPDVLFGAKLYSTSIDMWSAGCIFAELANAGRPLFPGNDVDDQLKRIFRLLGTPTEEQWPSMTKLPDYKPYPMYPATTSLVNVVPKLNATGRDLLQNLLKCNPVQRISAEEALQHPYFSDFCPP
# Hs_CDK5/p25, sequence (Q15078 99-307 partner limits assumed): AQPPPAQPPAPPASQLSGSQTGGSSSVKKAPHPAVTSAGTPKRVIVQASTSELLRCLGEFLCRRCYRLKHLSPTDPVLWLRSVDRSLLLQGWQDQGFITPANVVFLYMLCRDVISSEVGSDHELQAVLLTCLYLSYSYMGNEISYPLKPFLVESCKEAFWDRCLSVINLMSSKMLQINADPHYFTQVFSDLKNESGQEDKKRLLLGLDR
# Mm_CLK4, sequence (O35493 whole entry): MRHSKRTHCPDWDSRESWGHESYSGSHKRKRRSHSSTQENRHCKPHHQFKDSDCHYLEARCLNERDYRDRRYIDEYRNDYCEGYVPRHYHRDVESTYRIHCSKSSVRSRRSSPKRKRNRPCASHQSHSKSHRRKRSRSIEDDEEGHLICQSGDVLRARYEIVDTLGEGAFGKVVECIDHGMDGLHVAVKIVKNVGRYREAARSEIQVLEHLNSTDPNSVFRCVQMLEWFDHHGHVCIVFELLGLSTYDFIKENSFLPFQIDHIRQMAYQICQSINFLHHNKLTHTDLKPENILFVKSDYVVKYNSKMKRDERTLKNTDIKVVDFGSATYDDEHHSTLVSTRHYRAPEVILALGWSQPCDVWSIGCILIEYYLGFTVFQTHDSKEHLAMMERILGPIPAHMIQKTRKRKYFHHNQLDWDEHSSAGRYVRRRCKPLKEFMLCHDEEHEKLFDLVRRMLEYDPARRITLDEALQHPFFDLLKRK
# Hs_CDK9/CyclinT, sequence (P50750 whole entry): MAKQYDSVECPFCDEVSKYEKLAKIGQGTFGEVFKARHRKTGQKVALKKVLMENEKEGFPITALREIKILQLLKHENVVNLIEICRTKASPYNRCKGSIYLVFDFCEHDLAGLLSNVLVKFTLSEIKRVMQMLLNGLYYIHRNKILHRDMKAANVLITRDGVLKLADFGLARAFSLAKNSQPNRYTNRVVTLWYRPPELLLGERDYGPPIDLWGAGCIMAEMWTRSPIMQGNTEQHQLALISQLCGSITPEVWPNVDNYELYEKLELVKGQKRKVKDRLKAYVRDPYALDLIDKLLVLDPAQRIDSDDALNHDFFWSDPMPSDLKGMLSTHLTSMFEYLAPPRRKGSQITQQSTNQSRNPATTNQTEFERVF
# Hs_CDK9/CyclinT, sequence (O60563 whole entry partner): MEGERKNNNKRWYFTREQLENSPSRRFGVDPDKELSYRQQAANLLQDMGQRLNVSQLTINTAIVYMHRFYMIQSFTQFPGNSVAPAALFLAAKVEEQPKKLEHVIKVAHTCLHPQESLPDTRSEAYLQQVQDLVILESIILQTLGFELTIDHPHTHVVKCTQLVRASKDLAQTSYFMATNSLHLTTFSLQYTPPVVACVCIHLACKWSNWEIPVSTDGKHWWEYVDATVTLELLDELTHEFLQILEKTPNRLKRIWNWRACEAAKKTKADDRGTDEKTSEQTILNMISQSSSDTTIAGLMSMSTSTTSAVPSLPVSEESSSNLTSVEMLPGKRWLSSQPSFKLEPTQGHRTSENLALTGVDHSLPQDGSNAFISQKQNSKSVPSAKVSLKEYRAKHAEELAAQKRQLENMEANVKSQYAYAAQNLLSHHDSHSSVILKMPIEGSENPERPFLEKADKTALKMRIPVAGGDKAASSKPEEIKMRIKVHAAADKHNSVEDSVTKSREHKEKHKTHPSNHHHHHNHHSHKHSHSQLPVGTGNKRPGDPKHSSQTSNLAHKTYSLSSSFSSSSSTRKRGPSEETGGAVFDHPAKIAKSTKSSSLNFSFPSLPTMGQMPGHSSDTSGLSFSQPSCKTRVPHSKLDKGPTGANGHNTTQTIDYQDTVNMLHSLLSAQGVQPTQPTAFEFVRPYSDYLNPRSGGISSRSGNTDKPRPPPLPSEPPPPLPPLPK
# Mm_CLK3, sequence (O35492 whole entry): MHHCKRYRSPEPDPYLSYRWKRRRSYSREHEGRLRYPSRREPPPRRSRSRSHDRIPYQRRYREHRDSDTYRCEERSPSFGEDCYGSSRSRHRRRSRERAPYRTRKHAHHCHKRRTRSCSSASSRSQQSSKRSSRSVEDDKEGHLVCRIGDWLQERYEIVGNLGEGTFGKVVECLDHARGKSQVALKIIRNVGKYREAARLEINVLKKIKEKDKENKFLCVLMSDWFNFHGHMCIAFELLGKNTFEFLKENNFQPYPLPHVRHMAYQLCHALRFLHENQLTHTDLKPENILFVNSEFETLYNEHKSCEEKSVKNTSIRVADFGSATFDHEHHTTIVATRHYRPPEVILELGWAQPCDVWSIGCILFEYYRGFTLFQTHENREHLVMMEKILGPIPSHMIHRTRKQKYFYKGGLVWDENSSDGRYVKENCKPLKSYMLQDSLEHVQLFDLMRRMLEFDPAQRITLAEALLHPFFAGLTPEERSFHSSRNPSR
# T2 sequence (P22518 whole entry): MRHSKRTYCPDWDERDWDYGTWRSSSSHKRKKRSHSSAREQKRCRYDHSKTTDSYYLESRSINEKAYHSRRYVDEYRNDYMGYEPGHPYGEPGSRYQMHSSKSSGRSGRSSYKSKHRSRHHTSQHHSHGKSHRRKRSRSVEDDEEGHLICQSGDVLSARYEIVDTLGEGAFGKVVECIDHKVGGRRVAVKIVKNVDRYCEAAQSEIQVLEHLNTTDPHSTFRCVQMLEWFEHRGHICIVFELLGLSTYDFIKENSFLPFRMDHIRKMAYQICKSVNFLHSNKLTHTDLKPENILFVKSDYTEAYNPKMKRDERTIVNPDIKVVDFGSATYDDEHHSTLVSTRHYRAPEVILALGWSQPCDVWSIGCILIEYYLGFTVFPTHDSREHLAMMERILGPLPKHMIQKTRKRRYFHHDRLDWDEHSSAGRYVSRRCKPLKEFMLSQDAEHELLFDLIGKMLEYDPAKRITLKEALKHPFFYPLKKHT
# Hs_GSK3β, sequence (P49841 whole entry): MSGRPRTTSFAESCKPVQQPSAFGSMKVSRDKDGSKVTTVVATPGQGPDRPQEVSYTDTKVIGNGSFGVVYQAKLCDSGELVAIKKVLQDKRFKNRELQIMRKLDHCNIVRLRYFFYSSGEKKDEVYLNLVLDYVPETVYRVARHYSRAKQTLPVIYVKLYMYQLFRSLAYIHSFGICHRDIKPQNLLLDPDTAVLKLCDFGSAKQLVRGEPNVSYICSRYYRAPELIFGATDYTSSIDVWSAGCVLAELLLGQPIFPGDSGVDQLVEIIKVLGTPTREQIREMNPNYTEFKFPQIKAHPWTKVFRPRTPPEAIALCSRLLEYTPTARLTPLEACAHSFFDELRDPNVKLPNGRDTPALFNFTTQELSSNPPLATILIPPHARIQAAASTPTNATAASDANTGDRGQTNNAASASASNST
# Mm_CLK2, sequence (O35491 whole entry): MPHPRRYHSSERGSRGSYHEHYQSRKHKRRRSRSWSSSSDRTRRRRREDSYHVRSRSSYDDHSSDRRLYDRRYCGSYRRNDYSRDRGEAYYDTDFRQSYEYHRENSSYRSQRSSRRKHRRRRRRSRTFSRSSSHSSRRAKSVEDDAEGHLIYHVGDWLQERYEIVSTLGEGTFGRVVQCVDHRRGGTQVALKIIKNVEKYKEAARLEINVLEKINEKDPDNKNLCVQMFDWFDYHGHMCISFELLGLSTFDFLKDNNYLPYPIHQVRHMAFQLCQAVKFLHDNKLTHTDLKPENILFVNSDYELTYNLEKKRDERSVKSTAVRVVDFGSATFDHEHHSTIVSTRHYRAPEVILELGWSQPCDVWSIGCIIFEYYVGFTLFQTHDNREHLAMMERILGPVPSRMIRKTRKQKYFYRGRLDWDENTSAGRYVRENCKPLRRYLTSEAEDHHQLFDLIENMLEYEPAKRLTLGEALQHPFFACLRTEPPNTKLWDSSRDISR
remaining activity at 1 µM (Hs_CDK5/p25) [%],remaining activity at 10 µM (Hs_CDK5/p25) [%],remaining activity at 1 µM (Hs_CDK9/CyclinT) [%],remaining activity at 10 µM (Hs_CDK9/CyclinT) [%],remaining activity at 1 µM (Hs_CK1ε) [%],remaining activity at 10 µM (Hs_CK1ε) [%],remaining activity at 1 µM (Hs_GSK3β) [%],remaining activity at 10 µM (Hs_GSK3β) [%],remaining activity at 1 µM (Hs_HASPIN) [%],remaining activity at 10 µM (Hs_HASPIN) [%],remaining activity at 1 µM (Hs_PIM1) [%],remaining activity at 10 µM (Hs_PIM1) [%],remaining activity at 1 µM (Mm_CLK1 [1]) [%],remaining activity at 10 µM (Mm_CLK1 [1]) [%],remaining activity at 1 µM (Rn_DYRK1A) [%],remaining activity at 10 µM (Rn_DYRK1A) [%],activity against CLK1 in primary screening (Mm_CLK1 [1]),IC50 (Mm_CLK1 [2]) [µM],Mm_CLK3/Mm_CLK1 (Mm_CLK1 [2]),IC50 (Mm_CLK2) [µM],Compound,further results
–,–,–,–,–,–,–,–,–,–,–,–,–,–,–,–,–,–,–,–,O=C(O)c1ccc2c(c1)nc(Nc1cccc(Cl)c1)c1ccncc12 [CX-4945],IC50 (CLK1): 0.0033 µM; IC50 (CLK2): 0.0029 µM; IC50 (CLK3): 0.067 µM; IC50 (CLK4): 0.023 µM; IC50 (DYRK1A): […]
70,84,98,95,78,95,70,53,95,≥ 100,≥ 100,90,66,58,≥ 100,≥ 100,–,–,–,–,COC(=O)c1ccc(-c2cccc(Nc3ncc4cccc(OCc5cn(-c6ccc(C)cc6[N+](=O)[O-])nn5)c4n3)c2)cc1 [Compound 9a],–
61,70,84,38,93,84,82,32,93,92,80,≥ 100,15,0,≥ 100,84,significant activity against CLK1,0.891,4.18,0.844,Cc1ccc(-n2cc(COc3cccc4cnc(Nc5cccc(-c6ccc(C(=O)O)cc6)c5)nc34)nn2)c([N+](=O)[O-])c1 [Compound 10a],Mm_CLK3/Mm_CLK2 (Mm_CLK2): 4.42; IC50 (Mm_CLK4): 0.762 µM; Mm_CLK3/Mm_CLK4 (Mm_CLK4): 4.90; IC50 (Mm_CLK3): 3.7 µM and 3.73 µM
62,9,83,24,≥ 100,≥ 100,95,26,79,63,68,≥ 100,44,5,92,60,significant activity against CLK1,0.68,2.43,0.278,Cc1ccc(-n2cc(COc3cccc4cnc(Nc5cccc(-c6cccc(C(=O)O)c6)c5)nc34)nn2)c([N+](=O)[O-])c1 [Compound 13a],Mm_CLK3/Mm_CLK2 (Mm_CLK2): 5.95; IC50 (Mm_CLK4): 0.428 µM; Mm_CLK3/Mm_CLK4 (Mm_CLK4): 3.87; IC50 (Mm_CLK3): 1.66 µM

# From publication PMC12557437, “Research towards selective inhibition of the CLK3 kinase” (Beilstein Journal of Organic Chemistry, 2025)
